Assays:
[1] = system: MCL-1, BCL2L10, survivin and cPARP in MV4-11 cells; test: Western blot analysis of anti-apoptotic protein expression, MV4-11; format: cell-based, human; conditions: MV4-11, 24-hour treatment; gilteritinib 10 nM, AraC 1000 nM, DNR 6 nM, IDR 1 nM and 2 nM, Aza 1000 nM
Description: (§1) Cell lysates were prepared in radioimmunoprecipitation assay buffer (Thermo Fisher Scientific Inc., Rockford, IL) supplemented with phosphatase (Thermo Fisher Scientific Inc.) and protease inhibitors (Merck, Billerica, MA), electrophoresed on 4%–15% gels, and subsequently transferred to polyvinylidene difluoride membranes. The membranes were blocked using Blocking One (Nacalai Tesque Inc., Kyoto, Japan) for 1 hour and then incubated overnight with primary antibodies to MCL-1, BCL210, cPARP (all from Cell Signaling Technology, Danvers, MA, USA), survivin (R&D Systems, Inc., Minneapolis, MN), and α-actin (MilliporeSigma, Burlington, MA). The membranes were washed with TBS Tween-20 (TBS-T) buffer and incubated with appropriate horseradish peroxidase-linked secondary antibodies (Cell Signaling Technology Japan K.K.) for 1 hour at room temperature. After washing the membranes in TBS-T buffer, enhanced chemiluminescence Western Blotting Detection Reagent ECL-prime (GE Healthcare, Fairfield, CT) was applied. Signals were detected with a charge-coupled device camera (ImageQuant LAS4000; GE Healthcare); signal intensity was quantified using ImageQuant™ TL software (GE Healthcare).

[2] = system: MCL-1, BCL2L10, survivin and cPARP in MOLM-13 cells; test: Western blot analysis of anti-apoptotic protein expression, MOLM-13; format: cell-based, human; conditions: MOLM-13, 24-hour treatment; gilteritinib 30 nM, AraC 100 nM, IDR 3 nM, Aza 1000 nM
Description: as §1

MOLM-13 cells = test: Antitumor effects in mice xenografted with MOLM-13 cells; format: in vivo, mouse; conditions: MOLM-13 xenograft
Description: Four or five-week-old male nude mice (CanN.Cg-Foxn1nu/Crl/Crlj[nu/nu]; Charles River Laboratories Japan, Inc., Kanagawa, Japan) were maintained under specific pathogen-free conditions and received a standard diet and water supply throughout the study. All animal experimental procedures were performed in accordance with the Animal Ethics Committee of Astellas Pharma, Inc. For in vivo experiments, suspensions of MV4-11 and MOLM-13 cells in PBS at a concentration of 1 × 10^8 cells/mL were mixed with an equivalent volume of Matrigel® Basement Membrane Matrix, resulting in a final cell concentration of 5 × 10^7 cells/mL. The cells were subcutaneously injected into the flanks of mice at a concentration of 5 × 10^6 cells/0.1 mL/mouse. After tumor establishment, mice were divided into groups with similar mean tumor volume across groups.
Dosing volumes were 10 mL/kg for oral and intraperitoneal (IP) administration, and 5 or 10 mL/kg for intravenous (IV) administration. Treatment was administered once daily on designated days. The first day of treatment was designated as Day 0 and observation continued until Day 20 or 21 for mice xenografted with MV4-11 cells and Day 16 for mice xenografted with MOLM-13 cells. In mice xenografted with MV4-11 cells for experiments involving triple combination treatment, the control group received oral administration of vehicle (0.5% methylcellulose, Days 0–20), IP administration of vehicle (saline, Days 0–4), and IV administration of vehicle (saline, Days 0–2).
Mice with established tumors were selected and divided into groups on Day −1 or Day 0, so that the mean tumor volumes were similar across groups. Body weights and tumor volumes assessed on Day −1 were designated as Day 0 values. Body weight and tumor diameter were measured for each experimental group; antitumor activity was expressed as the percent inhibition of tumor growth and the percent of tumor regression (further details are outlined in the Supplementary Materials). […] Complete regression was defined as no palpable or observable tumor. […]
www.oncotarget.com Oncotarget, Supplementary Materials […]
Body weight and tumor diameter were measured group on Day 0]) in xenografted nude mice xenografted with MV4-11 cells on the indicated days for each experimental group: 1. […]
Tumor diameter was measured using a caliper and tumor 0.5% methylcellulose); 2. Oral methylcellulose (0.5%) in volume was determined by calculating the volume of an combination with IV IDR (0.5 mg/kg) and IP AraC (50 ellipsoid (ie, Length × Width2 × 0.5). The percent inhibition mg/kg); 3. […]
of tumor growth was calculated using the formula: kg) and IP AraC (50 mg/kg). […]
The percent tumor regression was calculated using […]

MV4-11 cells [3] = test: Cell cycle analysis; format: cell-based, human; conditions: 24 hours, control 59.8%
Description: MV4-11 cells were seeded in 12-well plates (AGC Techno Glass Co. Ltd., Shizuoka, Japan) at a concentration of 2 × 10^5 cells/well and cultured overnight.
The cells were subsequently harvested and fixed in ice-cold 70% ethanol and maintained at 4°C. Following fixation, the cells were washed with phosphate-buffered saline (PBS) and were resuspended in Guava® Cell Cycle Reagent (Merck Millipore Corporation, Darmstadt, Germany). Cell cycle distribution was measured using a Guava® PCA microcytometer (Merck Millipore Corporation), and was analyzed in 5000 cells per sample using CytoSoft™ software (Merck Millipore Corporation). The mean percentages of cells in sub-G1, G1, S, and G2/M phases were derived from four independent assays.

MV4-11 cells [4] = test: Annexin-V staining (apoptosis), MV4-11; format: cell-based, human; conditions: gilteritinib alone 3, 10 and 30 nM, 48 hours, vs vehicle
Description: MV4-11 cells were seeded in 12-well plates at a concentration of 2 × 10^5 cells/well and cultured overnight. […] MOLM-13 cells were seeded in 12-well plates at a concentration of 1 × 10^5 cells/well and cultured overnight.
Cells were harvested and incubated with Guava® Nexin Reagent (Merck Millipore Corporation, Billerica, MA). Annexin-V-positive cells were assessed using a Guava® PCA microcytometer (Merck Millipore Corporation); the percentage of annexin-V-positive cells (2000 cells per sample) was analyzed using CytoSoft™ software (Merck Millipore Corporation). Mean percentages of annexin-V-positive cells were derived from three independent experiments.

[5] = table title day 21, Aza experiment: oral gilteritinib 30 mg/kg/day Days 0-16, IV Aza 3 mg/kg/day Days 0-4

Compound	expression of MCL-1, BCL2L10, and survivin [1]	expression of MCL-1, BCL2L10, and survivin [2]	Inhibition of Tumor Growth (MOLM-13 cells; [5]) [%]	mean proportion of MV4-11 cells in G1 phase (MV4-11 cells [3]; gilteritinib 3 nM) [%]	mean proportion of MV4-11 cells in G1 phase (MV4-11 cells [3]; gilteritinib 10 nM) [%]	proportion of annexin-V-positive cells (MV4-11 cells [4])	Inhibition of Tumor Growth (MOLM-13 cells; by Day 16, gilteritinib 30 mg/kg alone (both experiments)) [%]	Inhibition of Tumor Growth (MOLM-13 cells; table title day 21, AraC/IDR experiment: oral gilteritinib 30 mg/kg/day Days 0-15, IP AraC 50 mg/kg/day Days 0-4, IV IDR 0.5 mg/kg/day Days 0-2) [%]
Nc1ncn([C@@H]2O[C@H](CO)[C@@H](O)[C@H]2O)c(=O)n1 [Aza, Azacitidine]	no change	little effect	37					
CCc1nc(C(N)=O)c(Nc2ccc(N3CCC(N4CCN(C)CC4)CC3)c(OC)c2)nc1NC1CCOCC1 [Gilteritinib]	inhibited the expression	strongly inhibited	90	69.0	70.7	significantly increased	≥ 90	93
